Results taken from US12344610B2, “APOL1 inhibitors and methods of use” (Maze Therapeutics, Inc., priority 2022, dated 2025).

How the values were obtained:
Assay type in all cases: cell-based
[1] = tested on: Trypanosoma brucei Lister 427 VSG221 with APOL1 G0 recombinant protein; test: APOL1 G0 trypanosome cell rescue assay (Example B5); settings: Trypanosoma brucei, 20 h, read-out: APOL1 G0 Trypanosome Rescue EC50, Trypanosoma brucei Lister 427 VSG221 with APOL1 G0 recombinant protein, 20 hours, CellTiter-Glo; geometric mean of at least 2 assay runs; † = single assay run
Procedure, shortened: (§1)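 Viability read by CellTiter-Glo luminescence after 20 h co-incubation (37° C, 5% CO2) of 250 trypanosomes/well in modified HMI-9 with test compound (duplicate 11-point, 2-fold dilutions, 0.4% DMSO) and APOL1 protein, […]. Protein: mature residues 28-398, E. coli inclusion-body refolded, tag cleaved, in DDM.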

[2] = tested on: HEK293 cells overexpressing APOL1 G2; test: APOL1 G2 HEK293 cell rescue assay (reversal of cell death caused by overexpression of APOL1); settings: Homo sapiens, HEK293, HEK293 overexpressing APOL1 G2; geometric mean of at least 2 assay runs; † = single assay run
Procedure, shortened: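 Each compound tested in duplicate wells on one plate per run, with values usually the geometric mean across at least two runs on different days, occasionally from one run only. Read-out: concentration giving half-maximal rescue of APOL1 G2 overexpression-induced death of HEK293 cells.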

[3] = tested on: Trypanosoma brucei Lister 427 VSG221 with APOL1 G2 recombinant protein; test: APOL1 G2 trypanosome cell rescue assay (Example B5); settings: Trypanosoma brucei, 20 h, read-out: APOL1 G2 Trypanosome Rescue EC50, Trypanosoma brucei Lister 427 VSG221 with APOL1 G2 recombinant protein, 20 hours, CellTiter-Glo; geometric mean of at least 2 assay runs; † = single assay run
Procedure, shortened: as §1

[4] = tested on: Trypanosoma brucei Lister 427 VSG221 with APOL1 G1 recombinant protein; test: APOL1 G1 trypanosome cell rescue assay (Example B5); settings: Trypanosoma brucei, 20 h, read-out: APOL1 G1 Trypanosome Rescue EC50, Trypanosoma brucei Lister 427 VSG221 with APOL1 G1 recombinant protein, 20 hours, CellTiter-Glo; geometric mean of at least 2 assay runs; † = single assay run
Procedure, shortened: as §1

SMILES | EC50 [1] | EC50 [2] | EC50 [3] | EC50 [4]
CN1C(=O)C2(CCN(CCOc3ccc(C(=O)N4CCS(=O)(=O)CC4)c(C(F)(F)F)c3)CC2)c2cc(C#N)ccc21 [Compound 261, 1′-{2-[4-(1,1-dioxo-1λ^6-thiomorpholine-4-carbonyl)-3-(trifluoromethyl)phenoxy]ethyl}-1-methyl-2-oxo-1,2-dihydrospiro[indole-3,4′-piperidine]-5-carbonitrile] | 84 nM | 89 nM | 29.6 nM | 100 nM
CS(=O)(=O)c1ccc(OCCN2CCC3(CC2)C(=O)N(CCO)c2ccc(Cl)cc23)cc1C(F)F [Compound 265, 5-chloro-1′-{2-[3-(difluoromethyl)-4-methanesulfonylphenoxy]ethyl}-1-(2-hydroxyethyl)-1,2-dihydrospiro[indole-3,4′-piperidin]-2-one] | 67.6 nM | 30 nM | 23.1 nM | 105 nM
CS(=O)(=O)c1ccc(OCCN2CCC3(CC2)C(=O)N(CCO)c2ccc(C#N)cc23)cc1C(F)F [Compound 266, 1′-{2-[3-(difluoromethyl)-4-methanesulfonylphenoxy]ethyl}-1-(2-hydroxyethyl)-2-oxo-1,2-dihydrospiro[indole-3,4′-piperidine]-5-carbonitrile] | 236 nM | 104 nM | 77.1 nM | 407 nM
O=C(c1ccc(OCCN2CCC3(CC2)C(=O)Nc2ccc(Cl)cc23)cc1C(F)(F)F)N1CCS(=O)(=O)CC1 [Compound 272, 4-[4-(2-{5-chloro-2-oxo-1,2-dihydrospiro[indole-3,4′-piperidin]-1′-yl}ethoxy)-2-(trifluoromethyl)benzoyl]-1λ^6-thiomorpholine-1,1-dione] | 58.9 nM | 93.4 nM | 18.9 nM | 73.2 nM
CS(=O)(=O)N1CC2(CN(C(=O)c3ccc(OCCN4CCC5(CC4)C(=O)Nc4ccc(Cl)cc45)cc3F)C2)C1 [Compound 273, 5-chloro-1′-[2-(3-fluoro-4-{6-methanesulfonyl-2,6-diazaspiro[3.3]heptane-2-carbonyl}phenoxy)ethyl]-1,2-dihydrospiro[indole-3,4′-piperidin]-2-one] | 64.9 nM | 88.5 nM | 25.8 nM | 71.6 nM
C[C@]1(O)C[C@@H](N2C(=O)CCc3cc(OCCN4CCC5(CC4)C(=O)Nc4ccc(C(F)F)cc45)cnc32)C1 [Compound 274, 5-(difluoromethyl)-1′-[2-({7-oxo-8-[(cis)-3-hydroxy-3-methylcyclobutyl]-5,6,7,8-tetrahydro-1,8-naphthyridin-3-yl}oxy)ethyl]-1,2-dihydrospiro[indole-3,4′-piperidin]-2-one] | 59.3 nM | 34 nM | 17.2 nM | 58.4 nM
C[C@]1(O)C[C@@H](N2C(=O)CCc3cc(OCCN4CCC5(CC4)C(=O)Nc4ccc(Cl)cc45)cnc32)C1 [Compound 275, 5-chloro-1′-[2-({7-oxo-8-[(cis)-3-hydroxy-3-methylcyclobutyl]-5,6,7,8-tetrahydro-1,8-naphthyridin-3-yl}oxy)ethyl]-1,2-dihydrospiro[indole-3,4′-piperidin]-2-one] | 61.2 nM | 27 nM | 21.4 nM | 73.6 nM
CS(=O)(=O)C1(c2ncc(OCCN3CCC4(CC3)C(=O)Nc3ccc(Cl)cc34)cn2)COC1 [Compound 276, 5-chloro-1′-(2-{[2-(3-methanesulfonyloxetan-3-yl)pyrimidin-5-yl]oxy}ethyl)-1,2-dihydrospiro[indole-3,4′-piperidin]-2-one] | 178 nM | 101 nM | 55 nM | 185 nM
CS(=O)(=O)C1(c2ncc(OCCN3CCC4(CC3)C(=O)Nc3ccc(C#N)cc34)cc2F)CC1 [Compound 283, 1′-(2-{[5-fluoro-6-(1-methanesulfonylcyclopropyl)pyridin-3-yl]oxy}ethyl)-2-oxo-1,2-dihydrospiro[indole-3,4′-piperidine]-5-carbonitrile] | 216 nM | 99 nM | 71.1 nM | 235 nM
CC(O)c1ncc(OCCN2CCC3(CC2)C(=O)Nc2ccc(Cl)cc23)cn1 (centres unmarked) [Compound 284, 5-chloro-1′-(2-{[2-(1-hydroxyethyl)pyrimidin-5-yl]oxy}ethyl)-1,2-dihydrospiro[indole-3,4′-piperidin]-2-one] | 808 nM | 199 nM | 235 nM | 943 nM
C[C@]1(O)C[C@@H](N2C(=O)OCc3cc(OCCN4CCC5(CC4)C(=O)Nc4ccc(Cl)cc45)cnc32)C1 [Compound 289, 5-chloro-1′-[2-({2-oxo-1-[(cis)-3-hydroxy-3-methylcyclobutyl]-1H,2H,4H-pyrido[2,3-d][1,3]oxazin-6-yl]oxy)ethyl]-1,2-dihydrospiro[indole-3,4′-piperidin]-2-one] | 38.2 nM | 16.7 nM | 15.7 nM | 51.9 nM
CC1(O)CN(c2ncc(OCCN3CCC4(CC3)C(=O)Nc3ccc(Cl)cc34)cn2)C1 [Compound 300, 5-chloro-1′-(2-{[2-(3-hydroxy-3-methylazetidin-1-yl)pyrimidin-5-yl]oxy}ethyl)-1,2-dihydrospiro[indole-3,4′-piperidin]-2-one] | 375 nM | 100 nM | 160 nM | 543 nM
O=C1Nc2ccc(Cl)cc2C12CCN(CCOc1cnc(N3CC(O)C3)nc1)CC2 [Compound 301, 5-chloro-1′-(2-{[2-(3-hydroxyazetidin-1-yl)pyrimidin-5-yl]oxy}ethyl)-1,2-dihydrospiro[indole-3,4′-piperidin]-2-one] | 327 nM | 86 nM | 134 nM | 447 nM
CS(=O)(=O)C1CN(c2ncc(OCCN3CCC4(CC3)C(=O)Nc3ccc(Cl)cc34)cn2)C1 [Compound 302, 5-chloro-1′-(2-{[2-(3-methanesulfonylazetidin-1-yl)pyrimidin-5-yl]oxy}ethyl)-1,2-dihydrospiro[indole-3,4′-piperidin]-2-one] | 356 nM | 98.1 nM | 142 nM | 498 nM
CC(C)(O)c1ncc(OCCN2CCC3(CC2)C(=O)Nc2ccc(Cl)cc23)cn1 [Compound 305, 5-chloro-1′-(2-{[2-(2-hydroxypropan-2-yl)pyrimidin-5-yl]oxy}ethyl)-1,2-dihydrospiro[indole-3,4′-piperidin]-2-one] | 187 nM | 85.4 nM | 80.4 nM | 265 nM
CC1(O)CN(c2nccc3cc(OCCN4CCC5(CC4)C(=O)Nc4ccc(Cl)cc45)cnc23)C1 [Compound 306, 5-chloro-1′-(2-{[8-(3-hydroxy-3-methylazetidin-1-yl)-1,7-naphthyridin-3-yl]oxy}ethyl)-1,2-dihydrospiro[indole-3,4′-piperidin]-2-one] | 37 nM | 110 nM | 15 nM | 50.8 nM
O=C1Nc2ccc(Cl)cc2C12CCN(CCOc1cnc3c(N4CC(O)C4)nccc3c1)CC2 [Compound 314, 5-chloro-1′-(2-{[8-(3-hydroxyazetidin-1-yl)-1,7-naphthyridin-3-yl]oxy}ethyl)-1,2-dihydrospiro[indole-3,4′-piperidin]-2-one] | 25.4 nM | 24.3 nM | 11.5 nM | 34.9 nM
